Data from article PMC9905294 (Biochemistry, 2023).
Values after ≈ are worked out from the molar mass of the structure shown. Like-named read-outs stand apart in the source and are kept apart here.

Assays:
[1] = system: Mtb mc^26230; experiment: MIC determination of compounds alone; assay type: cell-based, Mycobacterium tuberculosis; conditions: for MIC mc^26230: compound alone, duplicate; for MIC: Mycobacterium tuberculosis, read-out: MIC mc^26230
[2] = target: T1, Mtb Eis (Mycobacterium tuberculosis, UniProt P9WFK7); experiment: Eis acetylation assay; assay type: biochemical
[3] = target: T1, Mtb Eis; experiment: Screening acetylation assay with NEO as substrate; assay type: biochemical; conditions: conditions of the original high-throughput assay; compound 20 μM, NEO 100 μM
[4] = target: AAC(2’)-Ic (Mycobacterium tuberculosis, UniProt P9WQG9); experiment: Inhibitor selectivity, NEO acetylation assay; assay type: biochemical; conditions: concentrations up to 200 μM
[5] = target: T1, Mtb Eis; assay type: biochemical; conditions: for mode of inhibition with respect to KAN: Michaelis-Menten analysis of KAN acetylation by Eis
[6] = target: AAC(3)-IV (Salmonella sp, UniProt P08988); assay type: biochemical; conditions: concentrations up to 200 μM
[7] = target: AAC(6’)-Ie/APH(2”)-Ia (Staphylococcus aureus, UniProt P0A0C1); experiment: Inhibitor selectivity, NEO acetylation assay; assay type: biochemical; conditions: concentrations up to 200 μM
[8] = Eis 0.25 μM, KAN 100 μM, AcCoA 0.5 mM, Tris-HCl pH 8.0, triplicate
[9] = with respect to KAN, global nonlinear regression fit

Chain of AAC(6’)-Ie/APH(2”)-Ia (P0A0C1 whole entry): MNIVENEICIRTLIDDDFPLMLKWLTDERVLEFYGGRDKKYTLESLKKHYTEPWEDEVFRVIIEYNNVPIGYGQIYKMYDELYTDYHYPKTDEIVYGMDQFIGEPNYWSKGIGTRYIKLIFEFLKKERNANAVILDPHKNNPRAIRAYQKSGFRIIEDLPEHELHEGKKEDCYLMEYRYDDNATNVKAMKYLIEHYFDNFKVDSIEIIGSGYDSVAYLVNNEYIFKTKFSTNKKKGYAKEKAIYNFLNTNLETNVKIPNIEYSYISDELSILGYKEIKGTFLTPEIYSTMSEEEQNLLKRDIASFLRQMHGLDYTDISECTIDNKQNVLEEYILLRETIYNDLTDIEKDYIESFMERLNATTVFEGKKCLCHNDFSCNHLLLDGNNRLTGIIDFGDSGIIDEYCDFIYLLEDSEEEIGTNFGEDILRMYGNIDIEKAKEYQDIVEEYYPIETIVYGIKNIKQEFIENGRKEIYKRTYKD
Chain of AAC(2’)-Ic (P9WQG9 whole entry): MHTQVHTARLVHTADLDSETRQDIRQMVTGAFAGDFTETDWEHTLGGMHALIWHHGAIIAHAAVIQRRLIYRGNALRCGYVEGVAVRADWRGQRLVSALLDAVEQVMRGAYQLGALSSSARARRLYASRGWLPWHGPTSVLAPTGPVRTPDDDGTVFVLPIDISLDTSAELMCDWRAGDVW
Chain of AAC(3)-IV (P08988 whole entry): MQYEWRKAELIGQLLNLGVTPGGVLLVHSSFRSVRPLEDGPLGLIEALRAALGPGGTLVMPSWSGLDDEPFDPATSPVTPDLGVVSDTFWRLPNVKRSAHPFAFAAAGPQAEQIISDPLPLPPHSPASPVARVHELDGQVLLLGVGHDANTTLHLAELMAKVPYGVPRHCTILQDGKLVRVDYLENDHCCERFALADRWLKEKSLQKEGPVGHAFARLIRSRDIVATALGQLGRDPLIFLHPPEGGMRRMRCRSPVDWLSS
T1 sequence (P9WFK7 whole entry): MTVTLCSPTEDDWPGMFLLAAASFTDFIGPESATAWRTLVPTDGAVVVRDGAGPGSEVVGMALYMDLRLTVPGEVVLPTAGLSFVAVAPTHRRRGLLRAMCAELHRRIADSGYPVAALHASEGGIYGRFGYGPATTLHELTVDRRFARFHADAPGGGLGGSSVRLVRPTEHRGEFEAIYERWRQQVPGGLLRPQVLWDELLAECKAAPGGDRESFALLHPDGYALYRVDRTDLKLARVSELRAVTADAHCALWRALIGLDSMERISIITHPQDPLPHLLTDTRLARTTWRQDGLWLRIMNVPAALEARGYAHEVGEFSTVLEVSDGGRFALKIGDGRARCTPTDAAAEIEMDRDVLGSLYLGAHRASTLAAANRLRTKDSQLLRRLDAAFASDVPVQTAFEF

| SMILES | MIC mc^26230 [1] [µM] | MIC [1] [µM] | IC50 [2] [µM] | inhibition of NEO acetylation by AAC(2’)-Ic [4] | Ki [5] [µM] | Ki,u (equilibrium constant for inhibitor binding to enzyme-substrate complex) [5, 9] | inhibition of NEO acetylation by AAC(3)-IV [6] | inhibition of NEO acetylation by AAC(6’)-Ie [7] | mode of inhibition with respect to KAN [5] | also measured |
| --- | --- | --- | --- | --- | --- | --- | --- | --- | --- | --- |
| Fc1ccc(NN=Cc2ccc(Cl)cc2)cc1 [Compound 3] | > 64 |  |  |  |  |  |  |  |  | IC50 [2, 8]: > 200 µM; IC50 fold higher than that of PRO ([2]; ratio of IC50 values vs PRO): > 7 fold |
| COc1ccc(C(CN(C)C)C2(O)CCCCC2)cc1 (stereo not shown) [Venlafaxine (VEN), Venlafaxine] |  | > 64 | 134 ± 21 |  |  |  |  |  |  | inhibition of NEO acetylation activity of Mtb Eis [3]: detectable inhibition |
| OC(c1cc(C(F)(F)F)nc2c(C(F)(F)F)cccc12)C1CCCCN1 (stereo not shown) [Mefloquine (MEF), Mefloquine] |  | 16 (≈ 6.05 µg/mL) | 4.2 ± 0.8 | not inhibited | 7.2 ± 1.1 | 5.9 ± 1.3 (p = 0.0002) μM | not inhibited | not inhibited |  |  |
| NC[C@H]1O[C@H](O[C@H]2[C@H](O)[C@@H](O[C@H]3O[C@H](CO)[C@@H](O)[C@H](N)[C@H]3O)[C@H](N)C[C@@H]2N)[C@H](O)[C@@H](O)[C@@H]1O [Kanamycin (KAN), Kanamycin] | 0.17 (≈ 0.0824 µg/mL) |  |  |  |  |  |  |  |  |  |
| CCN(CC)CCCC(C)Nc1ccnc2cc(Cl)ccc12 (stereo not shown) [Chloroquine (CHQ), Chloroquine] |  | 64 (≈ 20.5 µg/mL) | 20 ± 2 | not inhibited | 12.3 ± 2.7 | 35 ± 20 (p = 0.1) μM | not inhibited | not inhibited | competitive |  |
| CN1CCCC(n2nc(Cc3ccc(Cl)cc3)c3ccccc3c2=O)CC1 (stereo not shown) [Azelastine (AZL), Azelastine] |  | 32 (≈ 12.2 µg/mL) | 0.79 ± 0.08 | not inhibited | 0.24 ± 0.05 | 0.9 ± 0.5 (p = 0.08) μM | not inhibited | not inhibited | competitive |  |
| [H]/N=C(\N/C(=N/[H])NCCCCCCNC(=N)NC(=N)Nc1ccc(Cl)cc1)Nc1ccc(Cl)cc1 [Chlorhexidine (CHX), Chlorhexidine] |  | ≤ 0.03 |  |  |  |  |  |  |  |  |
| NNC(=O)c1ccncc1 [Isoniazid (INH), Isoniazid] |  | ≤ 3.6 |  |  |  |  |  |  |  |  |
| Fc1cccc(NN=Cc2ccc(Cl)cc2)c1 [Compound 2] | > 64 |  |  |  |  | 104 ± 8 µM |  |  | uncompetitive inhibition | IC50 [2, 8]: 160 ± 49 µM; IC50 fold higher than that of PRO ([2]; ratio of IC50 values vs PRO): 5 fold |
| NC(N)=NN=Cc1ccc(Cl)cc1 [Compound 1] | > 64 |  |  |  |  |  |  |  | competitive inhibition | Ki ([5]; read-out: Ki (equilibrium constant for inhibitor binding to free enzyme), with respect to KAN, global nonlinear regression fit): 17 ± 2.4 µM; IC50 [2, 8]: 10 ± 3 µM; fold more potent than PRO as an Eis inhibitor ([2]; ratio of IC50 values vs PRO): 3 fold |
| [H]/N=C(\N/C(=N/[H])Nc1ccc(Cl)cc1)NC(C)C [Proguanil (PRO), Proguanil] |  | > 64 | 30 ± 7 | not inhibited | 28 ± 10 |  | not inhibited | not inhibited |  | inhibition of NEO acetylation activity of Mtb Eis [3]: detectable inhibition |
